Source: patent US12576107B2, “Methods of treating chronic inflammatory diseases” (METIMEDI PHARMACEUTICALS CO., LTD., priority 2018, dated 2026)

Columns and labels:
toll like receptor 4 = experiment: Immunocytochemistry of toll like receptor 4 in ARPE-19 cells; assay type: cell-based, Human; details: 2.5 mM, hypoxia
Method: Human retinal pigment epithelium cell line, ARPE-19, was purchased from American Type Culture Collection (Manassas, VA, USA). The ARPE-19 cells were maintained in RPMI1640 containing 10% fetal bovine serum (Life Technologies, Gaithersburg, MD, USA), 100 IU/ml penicillin, and 100 μg/ml streptomycin (Welgene, Daegu, South Korea).
ARPE-19 and SK-N-SH cells were fixed on bio-coated coverslips (BD bioscience, San Jose, CA, USA) by 4% PFA for 20 min and then incubated with the primary antibodies for 15 h. The primary antibodies were as follows: HIF-1a (1:300, BD Biosciences, San Jose, CA, USA); LDH-A (1:300, Santa Cruz Biotechnology, Santa Cruz, CA, USA); LDH-B (1:300, Santa Cruz Biotechnology, Santa Cruz, CA, USA); NF-κB (1:300, Santa Cruz Biotechnology, Santa Cruz, CA, USA); TLR-4 (1:300, Santa Cruz Biotechnology, Santa Cruz, CA, USA); apoE (1:200, Santa Cruz Biotechnology, Santa Cruz, CA, USA). After PBS wash, the cells were incubated with anti-mouse secondary biotinylated antibody (1:2000, Vector Laboratorie, Burlingame, CA, USA) and visualized with streptavidin conjugated to Fluorescein (Vector Laboratorie, Burlingame, CA, USA). […] Confocal fluorescence images were obtained with confocal laser scanning microscopy (LSCM, Nikon A1+, Tokyo, Japan) under a 60× oil immersion lens.

[1] = system: LPS-injected spinal cord of rats; experiment: Multiple sclerosis / spinal cord injury model, intraspinal injection of LPS; assay type: in vivo, Sprague-Dawley (SD) rats; details: 2 mg/kg daily subcutaneous 21 days
Method: (§1) Animals. […] Eight-week old male Sprague-Dawley (SD) rats were obtained from Samtako Co. (Osan, Gyeonggi-do, Republic of Korea) and bred under specific-pathogen-free (SPF) conditions. All animals were maintained in a 12-hour light/dark cycle at 22-25° C. with free access to food and water.
Dissolve 1 mg of LPS powder in 1 ml of saline. Keep the tubes on ice if LPS is going to be used fresh. For long storage, use screw cap vials are preferred. The aliquots were stored at deep freezer (−20° C.). Calcium lactate was purchased from Sigma Aldrich (St. Louis, USA).
Intraspinal injection of LPS. The animals were placed in a small acrylic cage that was coupled with an anesthesia machine that allowed them to breathe freely under gaseous anesthesia (2% isoflurane, Spartanburg, SC, USA). After full anesthesia of an animal was achieved, it was positioned on an operating table (while maintaining the gaseous anesthesia). For intraspinal injection of LPS, the laminectomy site of rats was exposed. Two small holes, 1 mm apart, were made in the dura over the left dorsal column. A volume of 1 μl of LPS solution was carefully drawn up into a sterile Hamilton syringe, and the LPS solution was slowly injected into the spinal cord. The syringe maintained in place for an additional 2 min to prevent back-flux from the injection site. Then, the injection site was closed by surgical clips.
Immunohistochemistry. […]

[2] = system: LPS-induced periodontal disease rats; experiment: Periodontal disease model, intragingival injection of LPS; assay type: in vivo, Sprague-Dawley (SD) rats; details: 2 mg/kg daily subcutaneous 21 days
Method: as §1
Dissolve 1 mg of LPS powder in 100 μl of saline. Keep the tubes on ice if LPS is going to be used fresh. For long storage, use screw cap vials are preferred. The aliquots were stored in a deep freezer (−20° C.). Calcium lactate was purchased from Sigma Aldrich (St. Louis, MO, USA).
Animal model for periodontal disease. Periodontal disease was induced by intragingival injection of LPS (1 mg/100 μl) in sterile saline. A fine hypodermic needle was inserted at the mesiolateral aspect of the first right mandibular molar and the tip moved distally so that the injection was made at the interdental papilla between the first and second molars. The injection was slowly made, and the needle held in place for 10 seconds post injection to ensure that the LPS was not lost through the needle track.
Histological analysis. […] Mount with mounting medium.

[3] = system: collagen-induced rheumatoid arthritis mice; experiment: Rheumatoid arthritis model, Type II collagen induction; assay type: in vivo, DBA1/J mice; details: 21 days after treatment
Method: Animals. […] Six-week old male DBA1/J mice were obtained from Japan SLC Inc. (Shizuoka, Japan) and bred under specific-pathogen-free (SPF) conditions. All animals were maintained in a 12-hour light/dark cycle at 22-25° C. with free access to food and water.
Preparation of agents. Two mg/mL Type II collagen was mixed with the same volume of complete Freund's adjuvant (CFA) for primary induction of rheumatoid arthritis. Two mg/mL Type II collagen was mixed with the same volume of incomplete Freund's adjuvant (IFA) for secondary induction of rheumatoid arthritis.
Primary induction: 0.1 mL of the mixed solution (Type II collagen+CFA) was injected subcutaneously into the area of 1.5 cm from the base of tail of mice. The administration site and depth were the same in all mice.
Secondary induction: 21 days after primary induction, 0.1 mL of the mixed solution (Type II collagen+IFA) was injected subcutaneously into the area of 1.5 cm from the base of tail of mice. The administration site and depth were the same in all mice.
Histological analysis. The mice foot and knee joint were dissected and fixed (4% paraformaldehyde) and decalcified for 2 days at 4° C. […] Mount with mounting medium.

[4] = system: Indomethacin-induced Crohn's disease rats; experiment: Crohn's disease model, oral Indomethacin; assay type: in vivo, Sprague-Dawley (SD) rats; details: Four-week after treatment
Method: (§2) Animals. […] Six-week old male Sprague-Dawley (SD) rats were obtained from Samtako Co. (Osan, Gyeonggi-do, Republic of Korea) and bred under specific-pathogen-free (SPF) conditions. All animals were maintained in a 12-hour light/dark cycle at 22-25° C. with free access to food and water.
(§3) Agents and animal model. To induce Crohn's disease and colitis, Indomethacin was purchased from Sigma Chemical (St. Louis, Missouri, USA) and was dissolved in saline. […] Two models of inflammatory bowel disease were used. Crohn's disease was induced by oral administration of Indomethacin (7 mg/kg), and colitis was induced by subcutaneous injections of Indomethacin (7 mg/kg) daily at a 24 h intervals (FIGS. 40 and 42).
(§4) Histological analysis. The fixed flat-mounts were dehydrated in a graded series of ethanol and embedded in paraffin.

[5] = system: Indomethacin-induced colitis rats; experiment: Colitis model, subcutaneous Indomethacin; assay type: in vivo, Sprague-Dawley (SD) rats; details: Four-week after treatment
Method: as §2, §3, §4

Compound: CC(O)C(=O)[O-].CC(O)C(=O)[O-].[Ca+2] (centres unmarked) [calcium lactate]
- inflammatory factor (toll like receptor 4), immunocytochemistry (toll like receptor 4): decreased
- demyelinated spinal cord [1]: Recovery
- microglia infiltration (Iba-1) in spinal cord [1]: reduction
- ligaments and gingiva around the root of tooth (Masson's trichrome) [2]: recovered
- morphology of the upper gum (Masson's trichrome) [2]: recovered
- inflammatory edema in the toes and knee joint ([3]; 2 mg/kg daily subcutaneous): clearly decreased
- morphology of toes and knee joint vs. normal control [3]: morphologically recovered
- transmural inflammation and linear ulceration in the intestinal tissues ([4]; 2 mg/kg daily subcutaneous): clearly decreased
- morphology of intestinal tissues vs. normal control [4]: morphologically recovered
- Superficial ulceration, polyp, and inflammation in the intestinal tissues ([5]; 2 mg/kg daily subcutaneous): clearly decreased
- morphology of intestinal tissues vs. normal control [5]: morphologically recovered
